Reference: publication PMC4350872, “The Inhibitory Effect of Kakkonto, Japanese Traditional (Kampo) Medicine, on Brain Penetration of Oseltamivir Carboxylate in Mice with Reduced Blood-Brain Barrier Function” (Evidence-based Complementary and Alternative Medicine : eCAM, 2015)
Where two headings read alike, the source gives them in different places.

Legend:
[1] = Plasma and cerebral concentrations of oseltamivir and OC after oral administration of OP; format: in vivo, C57BL/6 mice; conditions: OP 300 mg/kg p.o.; for AUC(0-t): C57BL/6, mouse, plasma, po, 300 mg/kg, read-out: AUC0–120 Plasma (converted); for mean brain-to-plasma ratio (BPR): mean AUCbrain / mean AUCplasma
Description: OP (300 mg/kg in 0.2 mL saline) was orally administered 4 h after the third injection of LPS. […] The brain tissue of mice was rapidly removed after the decapitation and rinsed in ice-cold PBS. Three to 9 mice were used at each sampling time point in each group.
Oseltamivir and OC levels in plasma and brain tissues were quantified by HPLC, as described in our previous study. Blood samples collected from the jugular vein were centrifuged to obtain plasma at 4°C (2,000 ×g, 15 min). Brain tissue samples were homogenized in 3.5 mL PBS/g tissue and centrifuged at 4°C (12,000 ×g, 10 min). Oseltamivir and OC were extracted from the resulting supernatant by solid-phase extraction (SPE) using Oasis MCX extraction cartridges (1 cc/30 mg, Waters, Milford, MA, USA) conditioned with 1 mL of methanol followed by 1 mL water. The supernatant sample (1 mL) was drawn through the cartridge and the cartridge was washed with 1 mL of 2% formic acid/water, followed by methanol and 0.005% ammonium hydroxide/methanol. The analytes were eluted with 3 mL of 5% ammonium hydroxide/methanol and evaporated to dryness under nitrogen at 40°C.
The HPLC system consisted of a pump (LC-10ADvp, Shimadzu Corp., Kyoto, Japan), degasser (DGU-12A, Shimadzu Corp.), column (Zorbax SB-CN 5 μm particle size, 4.6 × 250 mm, Agilent Technologies, CA, USA), column oven (CTO-10A, Shimadzu Corp.), and UV absorbance detector (SPD-10AV, Shimadzu Corp.). […] The column temperature was 50°C and the detector was operated at absorbance wavelength of 215 nm.

[2] = system: P-glycoprotein (P-gp); parameters: method as in PMID 19029202; conditions: cited from earlier work
[3] = system: organic anion transporter (OAT) 3; parameters: method as in PMID 19029202; conditions: cited from earlier work
[4] = system: multidrug resistance protein (MRP) 4; parameters: method as in PMID 19029202; conditions: cited from earlier work
[5] = parameters: method as in PMID 23881998; conditions: FDA Adverse Event Reporting System 1999 to 2011; cited from earlier work
[6] = Kak group (LPS + kakkonto 125 mg/kg p.o.)
[7] = Mao group (LPS + maoto 125 mg/kg p.o.)

SMILES	AUC(0-t) ([1]; Con group (LPS + saline p.o.))	AUC(0-t) [1, 6]	AUC(0-t) [1, 7]	AUC0–120 Brain ([1]; Con group (LPS + saline p.o.))	mean brain-to-plasma ratio (BPR) ([1]; Con group)	AUC0–120 Brain [1, 6]	mean brain-to-plasma ratio (BPR) ([1]; Kak group)	AUC0–120 Brain [1, 7]	mean brain-to-plasma ratio (BPR) ([1]; Mao group)	substrate for efflux transporter P-gp [2]	substrate for OAT3 [3]	substrate for MRP4 [4]	odds ratio, abnormal behavior [5]	odds ratio, delirium [5]
CCOC(=O)C1=C[C@@H](OC(CC)CC)[C@H](NC(C)=O)[C@@H](N)C1 [Oseltamivir, oseltamivir]	32500 ng·h/mL	84400 ng·h/mL	62500 ng·h/mL	79.35 min·μg/g brain	40.70 μL/g brain	200.21 min·μg/g brain	39.52 μL/g brain	119.92 min·μg/g brain	31.98 μL/g brain	substrate	–	–	–	–
CCC(CC)O[C@@H]1C=C(C(=O)O)C[C@H](N)[C@H]1NC(C)=O [OC, oseltamivir carboxylate]	12700 ng·h/mL	20000 ng·h/mL	14300 ng·h/mL	16.06 min·μg/g brain	21.08 μL/g brain	5.98 min·μg/g brain	4.98 μL/g brain	18.95 min·μg/g brain	22.12 μL/g brain	–	substrate	substrate	–	–
CCOC(=O)C1=C[C@@H](OC(CC)CC)[C@H](NC(C)=O)[C@@H](N)C1 [Tamiflu, Oseltamivir phosphate]	–	–	–	–	–	–	–	–	–	–	–	–	29.35	13.50
